Laboratory results published in US20250074892A1, “CARBONYL BRIDGED HETEROCYCLIC COMPOUND, AND COMPOSITION AND APPLICATION THEREOF” (BEIJING SCITECH-MQ PHARMACEUTICALS LIMITED, priority 2022, published 2025).
Like-named read-outs stand apart in the source and are kept apart here.

Key:
[1] = Rat PK&BBB (pharmacokinetics and brain penetration); assay type: in vivo, SD rats
Method: (§1) In this assay, the pharmacokinetic characteristics and ability to penetrate the blood-brain barrier of the compounds of the present application were assayed after administration of some of the compounds of the present application to SD rats, CD-1 mice or beagle dogs by single oral administration and intravenous injection.
(§2) 1. Intravenous (IV) injection group: an appropriate amount of the assay compound was weighed, and completely dissolved in an appropriate volume of vehicle. The mixture was stirred, vortexed and/or sonicated. Once a solution was obtained, the vehicle was gradually added to a final volume to reach the target concentration. The solution was vortexed, and sonicated to obtain a homogeneous solution. The solution was filtered through a 0.22 m PVDF membrane.
as §2, with “2. Oral (PO)” for “1. Intravenous (IV) injection”, “solution.” for “solution. The solution was filtered through a 0.22 m PVDF membrane.”
(§3) Meanwhile, the IV group was not fasted and the PO group was fasted overnight (>12 hrs) and given food 2 hrs after drug administration. All animals had free access to water. The dosing regimen and pharmacokinetic sampling regimen are given in Table 10 and Table 11 below, respectively.
Rats were administered according to the above protocol, and blood and brain tissue samples were collected and processed at predetermined time points (collection and processing were performed according to conventional methods in the art).
(§4) The brain was weighed and homogenized by adding 4 times of ultrapure water. Six times volume of acetonitrile was added respectively to the whole blood samples and brain homogenate (20 times volume of acetonitrile was added to the whole blood sample of mouse PK). The mixture was vortexed for 1 min and then centrifuged at 4° C., 4500 rpm for 15 min. According to the instrument response, the supernatant was diluted with diluent and the sample was analyzed by LC/MS.
(§5) Pharmacokinetic parameters were calculated using WinNonlin software. The following pharmacokinetic parameters were calculated if appropriate plasma/whole blood drug concentration-time data were available: CL (clearance); Vd (apparent volume of distribution); T1/2 (elimination half-life time); Cmax (peak concentration); Tmax (time to peak); AUC (area under plasma drug concentration-time curve); MRT (mean retention time); F % (bioavailability).

HT29 cells = experiment: Inhibition of cell necrosis (CCK8 method), HT29 cells; assay type: cell-based, human; conditions: Homo sapiens, HT-29, 16 h, HT29, Human TNF-α/AT-406/Z-VAD-FMK, 16 hours, CCK8
Summary of the method: (§6)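 HT29 (1.2×10^4/well) and L929 (2.0×10^4/well) cells were pretreated 30 min with compound, 9-point 4-fold series from 10 μM in duplicate. Necrosis was induced with human TNF-α 20 ng/mL, AT-406 […] and Z-VAD-FMK 20 μM for 16 h (HT29), or murine TNF-α 20 ng/mL and Z-VAD-FMK 25 μM for 4-8 h (L929). CCK8 viability; IC50 from dose-effect curve.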

[2] = Beagle PK (pharmacokinetics); assay type: in vivo, beagle dogs; conditions: whole blood, Beagle dog
Method: as §1, §2
as §2, with “2. Oral (PO)” for “1. Intravenous (IV) injection”, “solution.” for “solution. The solution was filtered through a 0.22 m PVDF membrane.”
as §3, §4, §5

L929 cells = experiment: Inhibition of cell necrosis (CCK8 method), L929 cells; assay type: cell-based, mouse; conditions: Mus musculus, L929, L929, Murine TNF-α/Z-VAD-FMK, 4-8 hours, CCK8
Summary of the method: as §6

[3] = Sprague-Dawley, rat, whole blood, iv, 3 mg/kg, IV 3 mg/kg, read-out: Blood drug concentration
[4] = Sprague-Dawley, rat, whole blood, po, 30 mg/kg, PO 30 mg/kg, read-out: Blood drug concentration
[5] = IV 1 mg/kg, read-out: Blood drug concentration
[6] = PO 3 mg/kg, read-out: Blood drug concentration

## O=C(C1CCN(c2cc(-c3cc(OCCCO)ccc3F)ccn2)CC1)N1N=CCC1c1cc(F)cc(F)c1 (racemic) [Example 18, (5-(3,5-difluorophenyl)-4,5-dihydro-1H-pyrazol-1-yl)(1-(4-(2-fluoro-5-(3-hydroxypropoxy)phenyl)pyridin-2-yl)piperidin-4-yl)methanone]
[1]; SD, whole blood, IV 3 mg/kg
  AUC(0-inf): 560 ± 62 ng·h/mL
  AUC(0-t): 559 ± 62 ng·h/mL
  Vd: 8.24 ± 0.68 L/kg
  half-life: 63.6 ± 4.2 min
[1]; SD, whole blood, IV 3 mg/kg, read-out: Cl—obs
  clearance: 90.1 ± 10.7 mL/min/kg
[1]; SD, whole blood, PO 30 mg/kg
  AUC(0-inf): 967 ± 285 ng·h/mL
  AUC(0-t): 922 ± 357 ng·h/mL
  Cmax: 309 ± 103 ng/mL
  Tmax: 1 h
  half-life: 186 ± 14.4 min
[1]; SD, whole blood, PO 30 mg/kg vs IV 3 mg/kg
  bioavailability: 17.3 ± 5.1%
[1]; Sprague-Dawley, brain / whole blood, PO 30 mg/kg, 2 h after administration, read-out: Brain/blood ratio
  Kp at 2 h: 1.49
[1]; Sprague-Dawley, rat, brain, po, 30 mg/kg, PO 30 mg/kg, 2 h after administration, read-out: Brain concentration
  concentration at 2 h: 397 ng/g
[1]; [3]
  concentration at 0 h: 0 ng/mL
  concentration at 0.25 h: 571 ± 31 ng/mL
  concentration at 0.5 h: 275 ± 24 ng/mL
  concentration at 1 h: 94.7 ± 10.7 ng/mL
  concentration at 4 h: 4.13 ± 0.75 ng/mL
  concentration at 7 h: 0.927 ± 0.301 ng/mL
[1]; Sprague-Dawley, rat, whole blood, iv, 3 mg/kg, IV 3 mg/kg, 0.083 hr, read-out: Blood drug concentration
  concentration at 0.083 h: 1170 ± 149 ng/mL
[1]; Sprague-Dawley, rat, whole blood, iv, 3 mg/kg, IV 3 mg/kg, 2 hr, read-out: Blood drug concentration
  concentration at 2 h: 25.5 ± 4.7 ng/mL
[1]; [4]
  concentration at 0 h: 0 ng/mL
  concentration at 0.25 h: 85.6 ± 26.6 ng/mL
  concentration at 0.5 h: 239 ± 47 ng/mL
  concentration at 1 h: 309 ± 103 ng/mL
  concentration at 4 h: 68.7 ± 31 ng/mL
  concentration at 7 h: 23.5 ± 5.2 ng/mL
[1]; Sprague-Dawley, rat, whole blood, po, 30 mg/kg, PO 30 mg/kg, 2 hr, read-out: Blood drug concentration
  concentration at 2 h: 165 ± 90 ng/mL
[1]; Sprague-Dawley, rat, whole blood, po, 30 mg/kg, PO 30 mg/kg, 24 hr, read-out: Blood drug concentration
  concentration at 24 h: 0.557 ng/mL
[1]; Sprague-Dawley, rat, whole blood, po, 30 mg/kg, PO 30 mg/kg, whole blood, 2 h after administration, read-out: Blood drug concentration
  concentration at 2 h: 266 ng/mL
HT29 cells
  IC50: ≤ 10 nM
[2]; IV 1 mg/kg
  AUC(0-inf): 699 ± 474 ng·h/mL
  AUC(0-t): 682 ± 447 ng·h/mL
  Vd: 2.42 ± 0.54 L/kg
  half-life: 67.8 ± 39 min
[2]; [5]
  concentration at 0 hr: 0 ng/mL
  concentration at 0.25 hr: 575 ± 222 ng/mL
  concentration at 0.5 h: 334 ± 229 ng/mL
  concentration at 1 h: 170 ± 148 ng/mL
  concentration at 2 h: 57.9 ± 63.2 ng/mL
  concentration at 4 h: 26 ± 24.1 ng/mL
  concentration at 7 h: 10 ng/mL
[2]; IV 1 mg/kg, 0.083 hr, read-out: Blood drug concentration
  concentration at 0.083 hr: 843 ± 237 ng/mL
[2]; IV 1 mg/kg, read-out: Cl—obs
  clearance: 31.4 ± 17.4 mL/min/kg
[2]; PO 3 mg/kg
  AUC(0-inf): 4240 ng·h/mL
  AUC(0-t): 4210 ng·h/mL
  Cmax: 1460 ng/mL
  Tmax: 1 h
  half-life: 273 min
[2]; PO 3 mg/kg vs IV 1 mg/kg
  bioavailability: 183%
[2]; [6]
  concentration at 0 hr: 0 ng/mL
  concentration at 0.25 hr: 469 ng/mL
  concentration at 0.5 h: 1060 ng/mL
  concentration at 1 h: 1460 ng/mL
  concentration at 2 h: 932 ng/mL
  concentration at 4 h: 138 ng/mL
  concentration at 7 h: 82.4 ng/mL
[2]; PO 3 mg/kg, 24 hr, read-out: Blood drug concentration
  concentration at 24 h: 4.41 ng/mL
L929 cells
  IC50: 50 to 100 nM
